Laboratory results from publication PMC7044277 (Nature Communications, 2020).
Where “and” joins values, the source holds several entries; their conditions need not be identical. Equal values may be shown once.

How the values were obtained:
Type in all cases: cell-based
320 non-olfactory GPCRs [1] = target: T1, 320 non-olfactory GPCRs (Homo sapiens, UniProt P25100)
T1 construct: expressed in transfected cells; host or cells: HTLA cells

320 non-olfactory GPCRs [2] = target: T2, 320 non-olfactory GPCRs (Homo sapiens, UniProt P35368)
T2 construct: expressed in transfected cells; host or cells: HTLA cells

320 non-olfactory GPCRs [3] = target: T3, 320 non-olfactory GPCRs (Homo sapiens, UniProt Q9BPV8); settings: receptor P2RY13; replicate values, Fig_4g
T3 construct: expressed in transfected cells; host or cells: HTLA cells

320 non-olfactory GPCRs [4] = target: T4, 320 non-olfactory GPCRs (Homo sapiens, UniProt P47871)
T4 construct: expressed in transfected cells; host or cells: HTLA cells
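Throughout, for Fold of Basal: compound tested at 1 µM final concentration.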
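Throughout, for GPCRome agonism screen response: fold over basal response of each receptor without drug.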

T2 sequence (P35368 whole entry): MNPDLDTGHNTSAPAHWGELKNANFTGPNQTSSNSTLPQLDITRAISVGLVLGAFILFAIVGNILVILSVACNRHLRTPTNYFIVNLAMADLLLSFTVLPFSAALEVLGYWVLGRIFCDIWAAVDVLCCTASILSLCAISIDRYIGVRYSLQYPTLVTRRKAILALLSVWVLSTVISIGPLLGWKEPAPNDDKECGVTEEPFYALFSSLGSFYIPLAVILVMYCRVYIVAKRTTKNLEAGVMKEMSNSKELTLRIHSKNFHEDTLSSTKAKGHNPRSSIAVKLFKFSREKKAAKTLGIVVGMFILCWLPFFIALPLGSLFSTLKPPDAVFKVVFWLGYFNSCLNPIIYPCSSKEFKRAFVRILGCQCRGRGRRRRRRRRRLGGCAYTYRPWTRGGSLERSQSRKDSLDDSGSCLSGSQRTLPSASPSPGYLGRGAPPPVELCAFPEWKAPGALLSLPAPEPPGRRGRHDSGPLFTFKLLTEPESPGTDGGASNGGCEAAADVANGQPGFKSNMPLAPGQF
T3 sequence (Q9BPV8 whole entry): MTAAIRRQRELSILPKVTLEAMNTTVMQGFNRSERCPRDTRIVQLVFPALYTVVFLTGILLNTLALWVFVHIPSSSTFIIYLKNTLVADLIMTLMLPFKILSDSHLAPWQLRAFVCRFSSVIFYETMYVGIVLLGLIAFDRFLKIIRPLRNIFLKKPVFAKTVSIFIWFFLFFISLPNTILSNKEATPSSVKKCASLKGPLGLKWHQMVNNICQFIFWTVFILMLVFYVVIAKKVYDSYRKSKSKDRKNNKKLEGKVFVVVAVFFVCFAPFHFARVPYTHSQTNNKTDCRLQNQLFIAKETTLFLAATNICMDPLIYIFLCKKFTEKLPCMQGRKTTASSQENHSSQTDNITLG
T4 sequence (P47871 26-477): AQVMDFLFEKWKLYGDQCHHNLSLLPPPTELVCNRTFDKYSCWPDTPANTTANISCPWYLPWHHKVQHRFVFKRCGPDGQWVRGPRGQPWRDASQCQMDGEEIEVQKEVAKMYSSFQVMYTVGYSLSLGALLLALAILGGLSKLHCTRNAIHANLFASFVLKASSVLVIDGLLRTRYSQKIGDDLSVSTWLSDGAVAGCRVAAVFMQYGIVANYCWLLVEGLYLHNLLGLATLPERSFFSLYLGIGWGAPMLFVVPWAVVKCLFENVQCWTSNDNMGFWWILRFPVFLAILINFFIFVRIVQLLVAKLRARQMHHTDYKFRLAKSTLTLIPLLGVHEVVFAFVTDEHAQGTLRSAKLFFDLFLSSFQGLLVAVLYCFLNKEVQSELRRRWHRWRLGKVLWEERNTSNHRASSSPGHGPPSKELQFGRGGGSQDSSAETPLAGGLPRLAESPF
T1 sequence (P25100 whole entry): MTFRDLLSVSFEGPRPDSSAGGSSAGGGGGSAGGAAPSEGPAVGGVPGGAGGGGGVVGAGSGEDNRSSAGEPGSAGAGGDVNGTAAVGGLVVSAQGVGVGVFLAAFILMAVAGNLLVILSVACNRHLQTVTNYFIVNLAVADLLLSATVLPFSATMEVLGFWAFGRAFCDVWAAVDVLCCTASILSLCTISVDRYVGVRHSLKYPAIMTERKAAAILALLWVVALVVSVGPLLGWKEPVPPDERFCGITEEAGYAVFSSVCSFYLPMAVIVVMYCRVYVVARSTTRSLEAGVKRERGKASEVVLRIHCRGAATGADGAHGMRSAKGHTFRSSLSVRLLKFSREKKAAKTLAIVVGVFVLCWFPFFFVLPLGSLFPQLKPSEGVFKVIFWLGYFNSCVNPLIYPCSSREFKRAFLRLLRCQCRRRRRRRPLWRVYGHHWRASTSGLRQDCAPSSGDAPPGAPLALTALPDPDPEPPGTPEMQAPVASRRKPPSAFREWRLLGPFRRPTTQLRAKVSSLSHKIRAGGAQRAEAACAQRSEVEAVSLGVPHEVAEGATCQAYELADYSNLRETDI

CCOc1cccc2cc(C(C)NCC3(O)CCCCC3)oc12 (stereo not shown) [O4LE6]
Fold of Basal (320 non-olfactory GPCRs [1]): 1.061 and 0.9787 and 0.8777 and 0.6895 | Fold of Basal (320 non-olfactory GPCRs [2]): 1.636 and 0.8834 and 1.032 and 1.027 | GPCRome agonism screen response (320 non-olfactory GPCRs [3]): 0.7893 and 1.044 and 0.6466 and 2.085 | Fold of Basal (320 non-olfactory GPCRs [4]): 1.104 and 0.7209 and 1.128 and 1.0533
